Data on two substances can be found in patent publication US20240209016A1, “FLUORESCENT NUCLEOSIDE PHOSPHATES” (STEALTH LABELS BIOTECH AB, priority 2021, published 2024).

Data set [1] can be described thus: Photophysical characterisation (absorption and emission spectra in DPBS). The format is physicochemical. The settings on record: room temperature; for ε405, FBA χ ΦF: at 405 nm; for λem, max / ΦF: excitation 355 nm; for ΦF: relative to quinine sulphate. As for the experimental part:
Absorption spectra were recorded on a Cary 4000 spectrometer (Agilent Technologies). The emission spectra were measured on a SPEX Fluorolog 3 spectrofluorimeter (Jobin Yvon Horiba). Three consecutive emission spectra recorded at a scan rate of 600 nm min−1 were collected and averaged. The spectra of compounds 7 and 17 in DPBS were recorded from 360 nm to 695 nm with excitation at 355 nm. To avoid bleaching, the monochromator slits on the excitation side were set to 0.8 nm, and on the emission side to 2.5 nm.
The spectra of molar absorptivities (ε in M^−1cm^−1) were calculated using Equation 1, with A being the measured absorption, A260 and ε260 the absorption or molar absorptivity, respectively, at 260 nm.
The fluorescence quantum yields were determined relative to the quantum yield of quinine sulphate in 0.5 M H2SO4 (ϕF=0.546^42, referred to as reference), and calculated using Equation 2, in which subscripts s and r refer to sample and reference, respectively. I is the integrated fluorescence intensity, A the measured absorption of the fluorophore at the excitation wavelength and n is the refractive index of the solvent (H2O or H2SO4, respectively; Eaton D. F.; Pure Appl. Chem. 60, 1107-1114 [1988 ]).
The spectroscopic properties of compounds 7 and 17 were determined under physiological conditions in order to determine the experimental setup for cell studies, with absorption and emission spectra being recorded in DPBS to mimic the ionic strength and salt composition in mammalian cells. To record emission spectra, the excitation wavelength was set to 355 nm, and measurements were performed at room temperature (ca. 22° C.). Molar absorptivities (s) were then calculated using the Beer-Lambert law.

Data set [2] has as its system Huh-7 cells. In words: Cellular incorporation into RNA (emission of extracted RNA). It counts as cell-based, human. Conditions: 24 h exposure; for emission of RNA extracted from exposed cells (in-cellulo RNA labelling): excitation 350 nm (2CNqA) or 370 nm (pA). As to the method: RNA Extraction: Cells were seeded in 12-well plates as described above. Treatment solutions were prepared by diluting compounds 7 and 17 to a concentration of 2.5 μM or 5 μM in CCM. Conditioned medium was removed from the cells and treatment solutions were added. For control cells CCM alone was added. Cells were incubated for 24 h at 37° C. and 5% CO2. For RNA extraction and purification, a QIAGEN RNeasy Mini Kit was used, following the manufacturer's protocol. Briefly, the cells were washed with DPBS, lysed, homogenized by 12 times passing it through a 20-gauge needle (0.9 mm outer diameter), and added to an equal volume of ethanol. The resulting solution was transferred to a RNeasy spin column and centrifuged. Then, binding buffer was added on top of the column, where after it was centrifuged again. The column-bound RNA was washed five times with washing buffer, with a centrifugation step between each addition. To elute the extracted RNA, 30 μL of the provided RNase-free water was applied to the column and centrifuged. This step was repeated twice to increase the yield of extracted RNA.
Three control samples were prepared to examine potential FBA-TP interferences with the extraction procedure, as well as non-covalent binding between the FBA-TP and RNA. 1) FBA-TP was added to the kit's lysate buffer to a concentration of 2.5 μM and treated in the same way starting from the homogenization step. 2) Unexposed cells were seeded and lysed as described above and FBA-TP was thereafter added directly to the lysate to make up a 2.5 μM final concentration. […] The concentration and purity of the RNA extracted from the unexposed cells were determined using a NanoDrop 2000 spectrophotometer (Thermo Scientific) and FBA-TP was added to reach a final concentration of 2.5 μM in the solution. […]
Absorption and Emission Readout of cellular RNA: Absorption spectra of extracted and purified RNA samples and controls were recorded on a Cary 4000 spectrometer (Agilent Technologies) between 200 nm and 600 nm. Emission spectra were measured on a SPEX Fluorolog 3 spectrofluorimeter (Jobin Yvon Horiba). […]

In data set [3] the test system is Huh-7 cells. The experiment in a line: Dose response of cell uptake, fluorescence in cell lysate. It counts as cell-based, human. The settings on record: 24 h exposure. The source says:
Quantification in Cell Lysate: For dose response experiments of the uptake of compounds 7 and 17, total cell lysates of the exposed cells were collected and measured on an Optima Blue Fluostar plate reader (BMG Labtech) with lysis buffer as background. 2CNqATP was excited using 355 nm (±20 nm) filter and emission was collected at through a bandpass filter centred at 460 nm (±12 nm). pATP was excited using 380 nm (±5 nm) filter and emission bandpass filter centred at 410 nm (±5 nm). Lysate buffer fluorescence was subtracted as background, and the fluorescence intensities of the triplicates were averaged. The fluorescence intensity was normalized to the highest added concentration of the compounds (10 μM).
Dose-response experiments were performed at one selected time point (24 h) in order to investigate the concentration dependency of cellular FBA-TP uptake. At the end of exposure, the cells were washed and lysed. The fluorescence of the compounds in the lysate, reflecting the internalized FBA, was measured using a plate reader. […] Compounds 7 and 17 show very different uptake characteristics. Cellular uptake of 2CNqATP increases dramatically with small increases in concentration and reaches a maximum, indicative of uptake saturation, already when 2.5 μM FBA-TP is added to the cells. By contrast, the increase of pATP emission between 0 and 2.5 μM is very small, only 4% of that of 2CNqATP, but when FBA-TP concentration is doubled it increases about 7 times. By adding 10 μM FBA-TP the fluorescence increases about 25 times, compared to 2.5 μM added compound.

Data set [4] relates to Huh-7 cells. The experiment in a line: alamarBlue cell viability (metabolic activity) assay. The format is cell-based. Conditions: lower doses, 24 h exposure. As to the method:
The Huh-7 human liver cell line was used.
After 24 h exposure with compounds 7 or 17, the conditioned medium was removed from the cells and used for the LDH leakage assay (see below). Freshly prepared alamarBlue cell viability reagent (Invitrogen, diluted 1:10 in CCM) was added, followed by incubation for 3 h at 37° C. and 5% CO2. The resulting resorufin fluorescence was read using an Optima Fluostar plate reader (BMG Labtech) Ex: 544 nm/Em: 590 nm. Dimethyl sulfoxide 5% and CCM alone (i.e. compounds 7 and 17 0 μM) were used as positive and negative controls for cell death, respectively.
(The colour change of resazurin is a common sign of viable cells or microbes.)

The test system of data set [5] is Huh-7 cells. The experiment in a line: Lactate dehydrogenase (LDH) leakage assay (cell membrane integrity). Conditions: all exposure conditions, 24 h; in parity with untreated control cells.
Procedure: The Huh-7 human liver cell line was used. […] For sub-cultivation the adherent cells were washed twice with DPBS, containing no calcium or magnesium, and detached with 0.25% trypsin ethylenediaminetetraacetic acid 1x (trypsin-EDTA, Gibco, with phenol red). For seeding, the cells were counted after trypsin neutralization, diluted to the desired number of cells (Table 2) and thereafter incubated at 37° C. with 5% CO2 for 24 h before experiments.
Prior to treatment, the conditioned medium was removed from the Huh-7 cells, and the compounds (stock solution in DPBS diluted in CCM) were added to the cells for different exposure times. Unexposed cells were treated the same way, with the same amount of added DPBS to CCM, instead of the compounds. Two different cytotoxicity assays (alamarBlue to measure metabolic activity and LDH leakage to measure cell membrane integrity) were performed in parallel using the cells and the culture medium from each sample, respectively. Treatments were done in triplicates and the experiment was repeated twice.
Lactate Dehydrogenase (LDH) Leakage Assay: To test for released LDH, the CyQUANT LDH Cytotoxicity Assay kit (Invitrogen) was used. […] Maximum LDH release were determined by treating cells with a 1:10 dilution of lysis buffer in serum free medium for 30 min at 37° C. and 5% CO2.

Where “and” joins values, the source holds several entries; their conditions need not be identical. Equal entries are not always repeated.

As for “((2R,3S,4R,5R)-5-(2,3,5,6-tetraazacyclopenta[de]tetracen-2(6H)-yl)-3,4-dihydroxytetrahydrofuran-2-yl)methyl hydrogen triphosphate [pATP]”, in data set [1], the absorption band peaks was 370 nm and 386 nm; the “εmax, FBA χ ΦF” value came out at 6000 M⁻¹ cm⁻¹; the “λabs, max” value is given as 386 nm; the “ε405, FBA χ ΦF” value was determined as 909 M⁻¹ cm⁻¹. In data set [1], the “λem, max” value was determined as 420 nm and the ΦF came out at 49%. For the same substance, the “emission of RNA extracted from exposed cells (in-cellulo RNA labelling)” value in data set [2] is listed as “on the same level as the controls”. For the same substance, in data set [3], the “fold increase of lysate fluorescence at 10 μM compared to 2.5 μM” value is on record as “about 25 times”; the “fold increase of lysate fluorescence when concentration is doubled from 2.5 μM” value is recorded as “about 7 times”; the “increase of emission between 0 and 2.5 μM relative to that of 2CNqATP” value was 4%.
“((2R,3S,4R,5R)-5-(8-cyano-2,3,5,6-tetraazaaceanthrylen-2(6H)-yl)-3,4-dihydroxytetrahydrofuran-2-yl)methyl hydrogen triphosphate [2CNqATP]”: in data set [1], the “εmax, FBA χ ΦF” value stood at 4900 M⁻¹ cm⁻¹; the “λabs, max” value worked out at 352 nm; the “ε405, FBA χ ΦF” value is 504 M⁻¹ cm⁻¹; the “λem, max” value is reported as 463 nm. For the same substance, the ΦF in data set [1] stood at 47%. For the same substance, in data set [2] (excitation at 350 nm), the “emission maximum of RNA extracted from exposed cells” value came out at 460 nm. Further, the “emission of RNA extracted from exposed cells (in-cellulo RNA labelling)” value in data set [2] is “significant emission peak”. For the same substance, the “added concentration at which uptake reaches maximum (saturation)” value in data set [3] came to 2.5 µM. In addition, in data set [4], the “comparison of cell viability at lower doses” value is “slightly more toxic than pATP”. Also, in data set [5], the “level of released LDH” value was “about 10%”.
